pKi: −log10 of the molar value. Entries after “also recorded” stand apart in the source; their conditions may differ. No end group written: not given here.
Assays:
[1] = in vivo, ip
PC12 cells = assay: Differentiation of cultured PC12 cells; type: cell-based; settings: 100 nM, compared to vehicle treated cells, qualitative
Procedure: The PC12 cells were cultured in RPMI containing 5% heat inactivated fetal bovine serum and 10% horse serum in the presence of 100 units/mL penicillin and 100 microgram/mL streptomycin. The cells were plated on poly-D-Lysine coated 6-well tissue culture plates at a density of 150,000 cells per well in 2 mL media. After 48 hours at 37° C. in 5% CO2 atmosphere, media exchange was performed and plates were dosed, using the peptide diluent (water) for the control samples. […] Cell images of each treatment group were captured and compared to the control cells to screen for differentiation and cell body volume increases. Cells having neurite-like process outgrowth were noted and photographed. The neurite-like outgrowth was deemed positive if its length was at least two times the width of the cell body.

human PAC1 receptors [2] = target: T1, human PAC1 receptors (Homo sapiens, UniProt P41586); assay: FLIPR calcium flux, antagonist variable concentration mode versus 5 nM PACAP1-27, PAC1-CHO cells; type: cell-based; settings: up to 1 μM
T1 construct: host or cells: CHO (clonal line PAC1-CHO)
T1 sequence (P41586 21-468): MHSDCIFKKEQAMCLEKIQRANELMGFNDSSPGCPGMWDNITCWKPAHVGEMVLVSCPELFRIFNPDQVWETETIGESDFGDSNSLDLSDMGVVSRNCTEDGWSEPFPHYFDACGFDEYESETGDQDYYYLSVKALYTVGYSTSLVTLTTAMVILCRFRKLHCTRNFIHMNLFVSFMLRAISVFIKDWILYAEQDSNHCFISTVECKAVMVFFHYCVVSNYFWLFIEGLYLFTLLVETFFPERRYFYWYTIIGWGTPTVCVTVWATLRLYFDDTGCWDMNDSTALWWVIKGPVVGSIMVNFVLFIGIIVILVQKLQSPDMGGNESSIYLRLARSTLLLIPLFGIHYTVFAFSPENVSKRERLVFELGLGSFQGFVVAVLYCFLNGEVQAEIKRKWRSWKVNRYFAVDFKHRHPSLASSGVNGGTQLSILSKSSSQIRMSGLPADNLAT
Procedure: A custom DNA clone of the human PAC1 gene with 3 hemagglutinin (HA) tags inserted 3′ to the signal peptide sequence (to avoid proteolytic loss) was obtained from Genecopoeia (Rockville, Md.). The construct was electroporated into Chinese Hamster Ovary (CHO) cells, and selected for with 500 μg/mL of G418. The resulting population was screened for high expressing clones, and one such clone selected for further analysis. […] This cell line was used for all molecular pharmacology experiments. The cells were maintained in DMEM/F12 with 10% heat-inactivated FBS, 1× penicillin/streptomycin, and 500 μg/mL G418, at 37° C. and 5% CO2.
All molecular pharmacology experiments were carried out using a FLIPR Tetra from Molecular Devices (Sunnyvale, Calif.), set to image calcium flux using the manufacturer's recommended settings and protocols. […] The resulting calcium flux was recorded, and the maximum-minimum response over the entire observation time calculated and reported as the mean±SEM (4 wells per point).
For antagonist mode experiments, a concentration curve (variable concentration mode) or fixed amount (fixed concentration mode) of antagonist was added to the cells, and allowed to equilibrate for 2 minutes. […] The resulting data was analyzed using a Gaddum/Schild EC50 shift model, (Schild, 1957, Gaddum, 1957) designed to analyze competitive antagonism. […]

[3] = test system: PACAP receptors in human neuroblastoma NB-OK-1 cell membranes; settings: Robberecht et al. 1992; read-out: reported Ki values; cited from earlier work
human PAC1 receptors [4] = target: T1, human PAC1 receptors; assay: FLIPR calcium flux, antagonist fixed concentration mode (Gaddum/Schild EC50 shift), PAC1-CHO cells; type: cell-based; settings: for shift of PACAP1-27 agonist curves: fixed concentrations of antagonist up to 1 μM
Procedure: A custom DNA clone of the human PAC1 gene with 3 hemagglutinin (HA) tags inserted 3′ to the signal peptide sequence (to avoid proteolytic loss) was obtained from Genecopoeia (Rockville, Md.). The construct was electroporated into Chinese Hamster Ovary (CHO) cells, and selected for with 500 μg/mL of G418. The resulting population was screened for high expressing clones, and one such clone selected for further analysis. […] This cell line was used for all molecular pharmacology experiments. […] All molecular pharmacology experiments were carried out using a FLIPR Tetra from Molecular Devices (Sunnyvale, Calif.), set to image calcium flux using the manufacturer's recommended settings and protocols. The day before an experiment, the PAC1-CHO cells were split into 384 well black walled, clear bottom microplates, 10,000 cells per well. The cells were recovered overnight in growth medium (as above). The next day, the growth medium was replaced with Calcium 6 dye (Molecular Devices) using the manufacturer recommended buffer with 2.5 mM probenecid. The cells were incubated for 2 hours in the culture incubator, and removed during the last 15 minutes to allow equilibration to room temperature. Compound as indicated below was added to the cells using a 384 tip block, with real time monitoring before, during, and 15 minutes after compound addition. The resulting calcium flux was recorded, and the maximum-minimum response over the entire observation time calculated and reported as the mean±SEM (4 wells per point). For antagonist mode experiments, a concentration curve (variable concentration mode) or fixed amount (fixed concentration mode) of antagonist was added to the cells, and allowed to equilibrate for 2 minutes. […] The resulting data was analyzed using a Gaddum/Schild EC50 shift model, (Schild, 1957, Gaddum, 1957) designed to analyze competitive antagonism. […] The pharmacology values are calculated separately from each experiment, then combined and reported as the mean±SEM for the entire set of experiments.

## CC[C@H](C)[C@H](NC(=O)CNC(=O)[C@H](CC(=O)O)NC(=O)[C@H](CO)NC(=O)[C@@H](N)Cc1c[nH]cn1)C(=O)N[C@@H](Cc1ccccc1)C(=O)N[C@H](C(=O)N[C@@H](CC(=O)O)C(=O)N[C@@H](CO)C(=O)N[C@@H](Cc1ccc(O)cc1)C(=O)N[C@@H](CO)C(=O)N[C@@H](CCCNC(=N)N)C(=O)N[C@@H](Cc1ccc(O)cc1)C(=O)N[C@@H](CCCNC(=N)N)C(=O)N[C@@H](CCCCN)C(=O)N[C@@H](CCC(N)=O)C(=O)N[C@@H](CCSC)C(=O)N[C@@H](C)C(=O)N[C@H](C(=O)N[C@@H](CCCCN)C(=O)N[C@@H](CCCCN)C(=O)N[C@@H](Cc1ccc(O)cc1)C(=O)N[C@@H](CC(C)C)C(=O)N[C@@H](C)C(=O)N[C@@H](C)C(=O)N[C@H](C(=O)N[C@@H](CO[C@@H]1O[C@H](CO)[C@@H](O)[C@H](O)[C@H]1O)C(N)=O)C(C)C)C(C)C)[C@@H](C)O [PACAP1-27-S-G]
[1]
  presence in mouse brain / crossing the blood brain barrier: presence in mouse brain could be detected

## CC[C@H](C)[C@H](NC(=O)CNC(=O)[C@H](CC(=O)O)NC(=O)[C@H](CO)NC(=O)[C@@H](N)Cc1c[nH]cn1)C(=O)N[C@@H](Cc1ccccc1)C(=O)N[C@H](C(=O)N[C@@H](CC(=O)O)C(=O)N[C@@H](CO)C(=O)N[C@@H](Cc1ccc(O)cc1)C(=O)N[C@@H](CO)C(=O)N[C@@H](CCCNC(=N)N)C(=O)N[C@@H](Cc1ccc(O)cc1)C(=O)N[C@@H](CCCNC(=N)N)C(=O)N[C@@H](CCCCN)C(=O)N[C@@H](CCC(N)=O)C(=O)N[C@@H](CCSC)C(=O)N[C@@H](C)C(=O)N[C@H](C(=O)N[C@@H](CCCCN)C(=O)N[C@@H](CCCCN)C(=O)N[C@@H](Cc1ccc(O)cc1)C(=O)N[C@@H](CC(C)C)C(=O)N[C@@H](C)C(=O)N[C@@H](C)C(=O)N[C@H](C(=O)N[C@@H](CC(C)C)C(N)=O)C(C)C)C(C)C)[C@@H](C)O [PACAP1-27]
PC12 cells
  neurite-like process outgrowth / differentiation: induced neurite outgrowth

## CSCC[C@H](NC(=O)[C@H](CCC(N)=O)NC(=O)[C@H](CCCCN)NC(=O)[C@H](CCCNC(=N)N)NC(=O)[C@H](Cc1ccc(O)cc1)NC(=O)[C@H](CCCNC(=N)N)NC(=O)[C@H](CO)NC(=O)[C@H](Cc1ccc(O)cc1)NC(=O)[C@H](CO)NC(=O)[C@H](CC(=O)O)NC(=O)[C@@H](NC(=O)[C@@H](N)Cc1ccccc1)[C@@H](C)O)C(=O)N[C@@H](C)C(=O)N[C@H](C(=O)N[C@@H](CCCCN)C(=O)N[C@@H](CCCCN)C(=O)N[C@@H](Cc1ccc(O)cc1)C(=O)N[C@@H](CC(C)C)C(=O)N[C@@H](C)C(=O)N[C@@H](C)C(=O)N[C@H](C(=O)N[C@@H](CC(C)C)C(=O)NCC(=O)N[C@@H](CCCCN)C(=O)N[C@@H](CCCNC(=N)N)C(=O)N[C@@H](Cc1ccc(O)cc1)C(=O)N[C@@H](CCCCN)C(=O)N[C@@H](CCC(N)=O)C(=O)N[C@@H](CCCNC(=N)N)C(=O)N[C@H](C(=O)N[C@@H](CCCCN)C(=O)N[C@@H](CC(N)=O)C(=O)N[C@@H](CCCCN)C(N)=O)C(C)C)C(C)C)C(C)C [PACAP6-38]
Human PAC1 receptors [2]
  antagonist activity at PAC1 (in words): very weak antagonist activity; also recorded: shows antagonism, but it is low potency
[3]
  pKi: 8.82
Human PAC1 receptors [4]; fixed concentration mode
  Schild Slope: 2.0±0.1
Human PAC1 receptors [4]
  shift of PACAP1-27 agonist curves: induced a shift only at 1 μM; also recorded: shifts the curve only at the highest concentration (1 μM)

## FTDSY10SRYRKQMAVK20KYLAAVL (FTDSYSRYRKQMAVKKYLAAVL-NH2; ends and bridges not checked) [PACAP6-27]
Human PAC1 receptors [2]
  antagonist activity at PAC1 (in words): no antagonist activity and none
[3]
  pKi: 7.22
Human PAC1 receptors [4]
  shift of PACAP1-27 agonist curves: caused no shift in the agonist curves; also recorded: no detectable shifts in the agonist curves
